Earlier results on two compounds are cited in patent publication US7585978B2, “Processes of manufacturing substituted-1,4-dihydropyridines, improved aqueous solutions thereof, and processes of manufacturing the solutions” (Navinta LLC, priority 2006, dated 2009).

Entries after “also recorded” stand apart in the source; their conditions may differ. Where a name gives a salt, the structure may show the parent alone.

For data set [1] the following is noted: hydrochloride.

Take `N=C(N)NCCC[C@H](N)C(=O)O` [L-arginine]: the “pKa (first of three pKa values)” value is given as 2.18 and the “pKa (second of three pKa values)” value is reported as 9.09.

`COC(=O)C1=C(C)NC(C)=C(C(=O)OCCN(C)Cc2ccccc2)C1c1cccc([N+](=O)[O-])c1` (stereo not drawn) [nicardipine hydrochloride]: in data set [1], the solubility in water entry is given as “poorly soluble in water; also recorded: very poorly soluble in water”.
